Target: T1, indoleamine 2, 3-dioxygenase (IDO1) (Homo sapiens, UniProt P14902)
T1 construct: human peripheral blood mononuclear cells (PBMC) (PB003F; host or cells: human PBMC stimulated with IFN-gamma and LPS
Test: PBMC IDO1 assay (kynurenine detection via mass spectrometry)
Assay type: cell-based
Details: human PBMC stimulated with IFN-γ and LPS, 2 days, kynurenine by mass spectrometry; read-out: IDO1 PBMC pIC50 (converted)
Experimental: Compounds of the present invention were tested via high-throughput cellular assays utilizing detection of kynurenine via mass spectrometry and cytotoxicity as end-points. For the mass spectrometry and cytotoxicity assays, human peripheral blood mononuclear cells (PBMC) (PB003F; AIICells®, Alameda, Calif.) were stimulated with human interferon-γ (IFN-γ) (Sigma-Aldrich Corporation, St. Louis, Mo.) and lipopolysaccharide from Salmonella minnesota (LPS) (Invivogen, San Diego, Calif.) to induce the expression of indoleamine 2, 3-dioxygenase (IDO1). Compounds with IDO1 inhibitory properties decreased the amount of kynurenine produced by the cells via the tryptophan catabolic pathway. Cellular toxicity due to the effect of compound treatment was measured using CellTiter-Glo® reagent (CTG) (Promega Corporation, Madison, Wis.), which is based on luminescent detection of ATP, an indicator of metabolically active cells.
In preparation for the assays, test compounds were serially diluted 3-fold in DMSO from a typical top concentration of 5 mM and plated at 0.5 μL in 384-well, polystyrene, clear bottom, tissue culture treated plates with lids (Greiner Bio-One, Kremsmunster, Austria) to generate 11-point dose response curves. Low control wells (0% kynurenine or 100% cytotoxicity) contained either 0.5 μL of DMSO in the presence of unstimulated (-IFN-γ/-LPS) PBMCs for the mass spectrometry assay or 0.5 μL of DMSO in the absence of cells for the cytotoxicity assay, and high control wells (100% kynurenine or 0% cytotoxicity) contained 0.5 μL of DMSO in the presence of stimulated (+IFN-γ/+LPS) PBMCs for both the mass spectrometry and cytotoxicity assays.
Frozen stocks of PBMCs were washed and recovered in RPMI 1640 medium (Thermo Fisher Scientific, Inc., Waltham, Mass.) supplemented with 10% v/v heat-inactivated fetal bovine serum (FBS) (Thermo Fisher Scientific, Inc., Waltham, Mass.), and 1× penicillin-streptomycin antibiotic solution (Thermo Fisher Scientific, Inc., Waltham, Mass.). The cells were diluted to 1,000,000 cells/mL in the supplemented RPMI 1640 medium. 50 μL of either the cell suspension, for the mass spectrometry assay, or medium alone, for the cytotoxicity assay, were added to the low control wells, on the previously prepared 384-well compound plates, resulting in 50,000 cells/well or 0 cells/well respectively. IFN-γ and LPS were added to the remaining cell suspension at final concentrations of 100 ng/ml and 50 ng/ml respectively, and 50 μL of the stimulated cells were added to all remaining wells on the 384-well compound plates. The plates, with lids, were then placed in a 37° C., 5% CO2 humidified incubator for 2 days.
Following incubation, the 384-well plates were removed from the incubator and allowed to equilibrate to room temperature for 30 minutes. For the cytotoxicity assay, CellTiter-Glo® was prepared according to the manufacturer's instructions, and 40 μL were added to each plate well. After a twenty minute incubation at room temperature, luminescence was read on an EnVision® Multilabel Reader (PerkinElmer Inc., Waltham, Mass.). For the mass spectrometry assay, 10 μL of supernatant from each well of the compound-treated plates were added to 40 μL of acetonitrile, containing 10 μM of an internal standard for normalization, in 384-well, polypropylene, V-bottom plates (Greiner Bio-One, Kremsmunster, Austria) to extract the organic analytes. Following centrifugation at 2000 rpm for 10 minutes, 10 μL from each well of the acetonitrile extraction plates were added to 90 μL of sterile, distilled H2O in 384-well, polypropylene, V-bottom plates for analysis of kynurenine and the internal standard on the RapidFire 300 (Agilent Technologies, Santa Clara, Calif.) and 4000 QTRAP MS (SCIEX, Framingham, Mass.). MS data were integrated using Agilent Technologies' RapidFire Integrator software, and data were normalized for analysis as a ratio of kynurenine to the internal standard. […]

T1 sequence (P14902 whole entry): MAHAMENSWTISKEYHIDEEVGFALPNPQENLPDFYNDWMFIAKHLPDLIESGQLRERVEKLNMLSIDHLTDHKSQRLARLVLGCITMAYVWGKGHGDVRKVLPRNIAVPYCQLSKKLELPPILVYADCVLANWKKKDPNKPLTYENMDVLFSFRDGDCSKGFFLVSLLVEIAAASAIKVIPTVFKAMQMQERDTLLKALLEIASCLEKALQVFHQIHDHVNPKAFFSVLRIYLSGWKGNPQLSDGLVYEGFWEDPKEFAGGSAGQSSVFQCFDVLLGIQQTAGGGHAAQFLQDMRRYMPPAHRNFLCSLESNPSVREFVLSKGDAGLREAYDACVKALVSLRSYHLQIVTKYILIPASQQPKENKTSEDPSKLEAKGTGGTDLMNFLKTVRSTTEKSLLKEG

Compound	IC50
CCc1ccc(C(=O)N[C@@H](CC2CCN(C(=O)OC(C)(C)C)CC2)c2ccccc2)s1 [Example 30, tert-butyl (S)-4-(2-(5-ethylthiophene-2-carboxamido)-2-phenylethyl)piperidine-1-carboxylate]	10 nM
CC(C)(C)OC(=O)N1CCC(CC(NC(=O)c2ccc(Br)s2)C2CCCCC2)CC1 (centres unmarked) [Example 31, tert-butyl 4-(2-(5-bromothiophene-2-carboxamido)-2-cyclohexylethyl)piperidine-1-carboxylate]	7.94 nM
CC(C)OC(=O)N1CCC(C[C@H](NC(=O)c2ccc(Cl)cc2)c2ccccc2)CC1 [Example 32, isopropyl (S)-4-(2-(4-chlorobenzamido)-2-phenylethyl)piperidine-1-carboxylate]	10 nM
C=CC[C@H](CC1CCN(C(=O)OC(C)(C)C)CC1)NC(=O)c1ccc(Cl)s1 [Example 34, tert-butyl (R)-4-(2-(5-chlorothiophene-2-carboxamido)pent-4-en-1-yl)piperidine-1-carboxylate]	3.98 nM
CCN(CC)c1nnc(C(CC2CCN(C(=O)OC(C)(C)C)CC2)NC(=O)c2ccc(Cl)s2)o1 (centres unmarked) [Example 44, tert-butyl 4-(2-(5-chlorothiophene-2-carboxamido)-2-(5-(diethylamino)-1,3,4-oxadiazol-2-yl)ethyl)piperidine-1-carboxylate]	3.16 nM
Cc1ccc(C(=O)NC(CC2CCN(C(=O)OC(C)(C)C)CC2)C(C)C)s1 (centres unmarked) [Example 46, tert-butyl 4-(3-methyl-2-(5-methylthiophene-2-carboxamido)butyl)piperidine-1-carboxylate]	3.98 nM
CCC(CC)c1nc(C(CC2CCN(C(=O)OC(C)(C)C)CC2)NC(=O)c2ccc(Cl)s2)no1 (centres unmarked) [Example 47, tert-butyl 4-(2-(5-chlorothiophene-2-carboxamido)-2-(5-(pentan-3-yl)-1,2,4-oxadiazol-3-yl)ethyl)piperidine-1-carboxylate]	3.98 nM
CCN(CC)c1nnc(C(CC2CCN(C(=O)OC(C)(C)C)CC2)NC(=O)c2ccc(C)s2)o1 (centres unmarked) [Example 48, tert-butyl 4-(2-(5-(diethylamino)-1,3,4-oxadiazol-2-yl)-2-(5-methylthiophene-2-carboxamido)ethyl)piperidine-1-carboxylate]	3.98 nM
CCc1ccc(C(=O)NC(CC2CCN(C(=O)OC(C)(C)C)CC2)C(C)C)s1 (centres unmarked) [Example 49, tert-butyl 4-(2-(5-ethylthiophene-2-carboxamido)-3-methylbutyl)piperidine-1-carboxylate]	6.31 nM
CCN(c1nnc(C(CC2CCN(C(=O)OC(C)(C)C)CC2)NC(=O)c2ccc(C)s2)o1)C1CC1 (centres unmarked) [Example 50, tert-butyl 4-(2-(5-(cyclopropyl(ethyl)amino)-1,3,4-oxadiazol-2-yl)-2-(5-methylthiophene-2-carboxamido)ethyl)piperidine-1-carboxylate]	6.31 nM
Cc1ccc(C(=O)NC(CC2CCN(C(=O)Oc3ccccc3)CC2)c2ccccc2)s1 (centres unmarked) [Example 51, phenyl 4-(2-(5-methylthiophene-2-carboxamido)-2-phenylethyl)piperidine-1-carboxylate]	7.94 nM
CCN(C)c1nnc(C(CC2CCN(C(=O)OC(C)(C)C)CC2)NC(=O)c2ccc(C)s2)o1 (centres unmarked) [Example 52, tert-butyl 4-(2-(5-(ethyl(methyl)amino)-1,3,4-oxadiazol-2-yl)-2-(5-methylthiophene-2-carboxamido)ethyl)piperidine-1-carboxylate]	10 nM

Further lines, results first:

IC50	Compound
1.58 nM	COc1ccc([C@H](CC2CCN(C(=O)OC(C)(C)C)CC2)NC(=O)c2ccc(Br)s2)cn1 [Example 29, tert-butyl (S)-4-(2-(5-bromothiophene-2-carboxamido)-2-(6-methoxypyridin-3-yl)ethyl)piperidine-1-carboxylate]
7.94 nM	CCc1ccc(C(=O)N[C@@H](CC2CCN(C(=O)OC(C)C)CC2)c2ccccc2)s1 [Example 33, isopropyl (S)-4-(2-(5-ethylthiophene-2-carboxamido)-2-phenylethyl)piperidine-1-carboxylate]
6.31 nM	CC(C)CC(CC1CCN(C(=O)Oc2ccccc2)CC1)NC(=O)c1ccc(Cl)s1 (centres unmarked) [Example 35, phenyl 4-(2-(5-chlorothiophene-2-carboxamido)-4-methylpentyl)piperidine-1-carboxylate]
1.58 nM	COc1ccc([C@H](CC2CCN(C(=O)Oc3ccccc3)CC2)NC(=O)c2ccc(Cl)s2)cn1 [Example 36, phenyl (S)-4-(2-(5-chlorothiophene-2-carboxamido)-2-(6-methoxypyridin-3-yl)ethyl)piperidine-1-carboxylate]
2.51 nM	COc1ccc([C@H](CC2CCN(C(=O)Oc3ccccc3)CC2)NC(=O)c2ccc(Cl)cc2)cn1 [Example 37, phenyl (S)-4-(2-(4-chlorobenzamido)-2-(6-methoxypyridin-3-yl)ethyl)piperidine-1-carboxylate]
5.01 nM	C[C@H](CC1CCN(C(=O)OC(C)(C)C)CC1)NC(=O)c1ccc(Cl)s1 [Example 38, tert-butyl (R)-4-(2-(5-chlorothiophene-2-carboxamido)propyl)piperidine-1-carboxylate]
5.01 nM	COc1ccc([C@H](CC2CCN(C(=O)CC(C)(C)C)CC2)NC(=O)c2ccc(Cl)s2)cn1 [Example 39, (S)-5-chloro-N-(2-(1-(3,3-dimethylbutanoyl)piperidin-4-yl)-1-(6-methoxypyridin-3-yl)ethyl)thiophene-2-carboxamide]
3.98 nM	COc1ccc([C@H](CC2CCN(C(=O)NC(C)(C)C)CC2)NC(=O)c2ccc(Cl)s2)cn1 [Example 40, (S)-N-(tert-butyl)-4-(2-(5-chlorothiophene-2-carboxamido)-2-(6-methoxypyridin-3-yl)ethyl)piperidine-1-carboxamide]
3.98 nM	COc1ccc([C@H](CC2CCN(S(=O)(=O)CC(C)C)CC2)NC(=O)c2ccc(Cl)s2)cn1 [Example 41, (S)-5-chloro-N-(2-(1-(isobutylsulfonyl)piperidin-4-yl)-1-(6-methoxypyridin-3-yl)ethyl)thiophene-2-carboxamide]
5.01 nM	C[C@H](CC1CCN(C(=O)Oc2ccccc2)CC1)NC(=O)c1ccc(Cl)s1 [Example 42, phenyl (R)-4-(2-(5-chlorothiophene-2-carboxamido)propyl)piperidine-1-carboxylate]
1 nM	COc1ccc([C@H](CC2CCN(C(=O)C(F)(F)c3ccccc3)CC2)NC(=O)c2ccc(Cl)s2)cn1 [Example 43, (S)-5-chloro-N-(2-(1-(2,2-difluoro-2-phenylacetyl)piperidin-4-yl)-1-(6-methoxypyridin-3-yl)ethyl)thiophene-2-carboxamide]
3.16 nM	CCOC(=O)N1CCC(CC(NC(=O)c2ccc(Cl)s2)c2nnc(N(CC)CC)o2)CC1 (centres unmarked) [Example 45, ethyl 4-(2-(5-chlorothiophene-2-carboxamido)-2-(5-(diethylamino)-1,3,4-oxadiazol-2-yl)ethyl)piperidine-1-carboxylate]
3.16 nM	CCN(CC)c1nnc(C(CC2CCN(C(=O)Oc3ccccc3)CC2)NC(=O)c2ccc(Cl)s2)o1 (centres unmarked) [Example 53, phenyl 4-(2-(5-chlorothiophene-2-carboxamido)-2-(5-(diethylamino)-1,3,4-oxadiazol-2-yl)ethyl)piperidine-1-carboxylate]
12.6 nM	COc1ccc(C(CC2CCN(C(=O)OC(C)(C)C)CC2)NC(=O)c2ccc(F)cc2)cn1 (centres unmarked) [Example 54, tert-butyl 4-(2-(4-fluorobenzamido)-2-(6-methoxypyridin-3-yl)ethyl)piperidine-1-carboxylate]

Reference: patent publication US20210078988A1, “MODULATORS OF INDOLEAMINE 2,3-DIOXYGENASE” (GLAXOSMITHKLINE INTELLECTUAL PROPERTY DEVELOPMENT LIMITED, priority 2017, published 2021)
